The source made the active and inactive calls. How the calls were made is not given here.
System: VEGF-stimulated ADSC/ECFC co-culture, nuclear area imaging
Assay: nuclear area loss in endothelial-stromal co-culture, dose response, cell-based, VEGF stimulation, IC50 (AID 1117324)

| Structure (SMILES) | IC50 |
| --- | --- |
| C[C@H]1O[C@@H](O[C@H]2CC[C@@]3(C)[C@H](CC[C@@H]4[C@@H]3C[C@@H](O)[C@]3(C)[C@@H](C5=CC(=O)OC5)CC[C@]43O)C2)C[C@H](O)[C@@H]1O[C@H]1C[C@H](O)[C@H](O[C@H]2C[C@H](O)[C@H](O[C@@H]3O[C@H](CO)[C@@H](O)[C@H](O)[C@H]3O)[C@@H](C)O2)[C@@H](C)O1 | 0.299 µM |
| CC[C@]1(O)C[C@H]2CN(CCc3c([nH]c4ccccc34)[C@@](C(=O)OC)(c3cc4c(cc3OC)N(C=O)[C@H]3[C@@](O)(C(=O)OC)[C@H](OC(C)=O)[C@]5(CC)C=CCN6CC[C@]43[C@@H]65)C2)C1 | > 10 µM (inactive) |
| O=c1[nH]cc(F)c(=O)[nH]1 | > 10 µM (inactive) |
| O=C(Nc1ccc(Cl)cc1)Nc1ccc(Cl)c(Cl)c1 | > 10 µM (inactive) |
| O=C(CBr)Nc1ccc(Cl)cc1C(=O)c1ccccc1F | > 10 µM (inactive) |
| CCCCCCCCCCCCCCCCCCNC(=O)OC1CCN(C(=O)OC[C@H](COC(=O)N(Cc2cccc[n+]2CC)C(=O)c2ccccc2OC)OC)CC1 | > 10 µM (inactive) |
| CC(C)C[C@H](NC(=O)[C@H](CCc1ccccc1)NC(=O)CN1CCOCC1)C(=O)N[C@@H](Cc1ccccc1)C(=O)N[C@@H](CC(C)C)C(=O)[C@@]1(C)CO1 | 0.285 µM |
| O=C(Nc1ccc(Oc2ccc(Cl)cc2)c(Cl)c1)c1cc(I)cc(I)c1O | 6.57 µM (inactive) |
| CN(C)C(=O)Oc1cccc([N+](C)(C)C)c1 | > 10 µM (inactive) |
| O=[N+]([O-])c1cccc(S(=O)(=O)NCCNS(=O)(=O)c2cccc([N+](=O)[O-])c2)c1 | > 10 µM (inactive) |
| Clc1ccc(COC(Cn2ccnc2)c2ccc(Cl)cc2Cl)cc1 (stereo not drawn) | 9.93 µM (inactive) |
| CCN(CC)CCCC(C)Nc1c2ccc(Cl)cc2nc2ccc(OC)cc12 (stereo not drawn) | > 10 µM (inactive) |
| CC[C@H](C)C(=O)O[C@H]1C[C@@H](C)C=C2C=C[C@H](C)[C@H](CC[C@@H]3C[C@@H](O)CC(=O)O3)[C@H]21 | > 10 µM (inactive) |
| CSc1ccc(/C=C2/C(C)=C(CC(=O)O)c3cc(F)ccc32)cc1 | > 10 µM (inactive) |
| COc1ccccc1OCCNCC(O)COc1cccc2[nH]c3ccccc3c12 (stereo not drawn) | > 10 µM (inactive) |
| CCOC(=O)[C@H](CCc1ccccc1)N[C@@H](C)C(=O)N1Cc2cc(OC)c(OC)cc2C[C@H]1C(=O)O | > 10 µM (inactive) |
| O=NN(CCCl)C(=O)NC1CCCCC1 | > 10 µM (inactive) |
| CCCCCCCCCCCC(=O)[O][Sn]([CH2]CCC)([CH2]CCC)[O]C(=O)CCCCCCCCCCC | > 10 µM (inactive) |
| Nc1ncn([C@@H]2O[C@H](CO)[C@@H](O)[C@H]2O)c(=O)n1 | > 10 µM (inactive) |
| CCCCCCCCOC(=O)c1ccccc1C(=O)OCCCCCCCC | > 10 µM (inactive) |
| Clc1ccc(C(Cn2ccnc2)OCc2ccsc2Cl)c(Cl)c1 (stereo not drawn) | 9.47 µM (inactive) |
| CCCCCCCCOc1ccccc1C(=O)Nc1ccc(C(=O)OCC[N+](C)(CC)CC)cc1 | 8.47 µM (inactive) |
| CCCCCCCCCCCC[N+](C)(C)CCOc1ccccc1 | 7.29 µM (inactive) |
| Nc1c2ccccc2nc2ccccc12 | > 10 µM (inactive) |
| O=C(CCCN1CCC(O)(c2cccc(C(F)(F)F)c2)CC1)c1ccc(F)cc1 | > 10 µM (inactive) |
| CCCCCN=C(N)N/N=C/c1c[nH]c2ccc(OC)cc12 | 7.17 µM (inactive) |
| Cc1ccc2nc(N)[nH]c(=O)c2c1Sc1ccncc1 | > 10 µM (inactive) |

| Structure (SMILES) | IC50 |
| --- | --- |
| O=C(NC(=O)c1c(F)cccc1F)Nc1ccc(Cl)c(Oc2ncc(C(F)(F)F)cc2Cl)c1 | > 10 µM (inactive) |
| Cc1c(N)cccc1C(F)(F)F | > 10 µM (inactive) |
| COC(=O)CCCCC(CCSS/C(CCO)=C(\C)N(C=O)Cc1cnc(C)nc1N)SC(C)=O (stereo not drawn) | > 10 µM (inactive) |
| CC(=O)Oc1ccccc1C(=O)Nc1ncc([N+](=O)[O-])s1 | > 10 µM (inactive) |
| CC1CCC(C(C)C)C(OC(=O)c2ccccc2O)C1 (stereo not drawn) | > 10 µM (inactive) |
| CC=CC1C(C(=O)OCc2c(F)c(F)c(COC)c(F)c2F)C1(C)C (stereo not drawn) | > 10 µM (inactive) |
| Cc1ccc(O)cc1 | > 10 µM (inactive) |
| CCCCCCCCCCC[C@@H](C[C@@H]1OC(=O)[C@H]1CCCCCC)OC(=O)[C@H](CC(C)C)NC=O | > 10 µM (inactive) |
| CO[C@H]1O[C@@H]2O[C@@]3(C)CC[C@H]4[C@H](C)CC[C@@H]([C@@H]1C)[C@@]24OO3 | > 10 µM (inactive) |
| O=C1CC[C@H](C(=O)N2CCCCC2)N1 | > 10 µM (inactive) |
| C[n+]1cc2c3c(ccc2c2ccc4cc5c(cc4c21)OCO5)OCO3 | 0.97 µM |
| CCc1c2c(nc3ccc(OC(=O)N4CCC(N5CCCCC5)CC4)cc13)-c1cc3c(c(=O)n1C2)COC(=O)[C@]3(O)CC | 8.12 µM (inactive) |
| Clc1ccc(CSC(Cn2ccnc2)c2ccc(Cl)cc2Cl)cc1 (stereo not drawn) | 8.76 µM (inactive) |
| CC(=O)[C@]1(O)Cc2c(O)c3c(c(O)c2[C@@H](O[C@H]2C[C@H](N)[C@H](O)[C@H](C)O2)C1)C(=O)c1ccccc1C3=O | 0.538 µM |
| CN1CCN(C2Cc3ccccc3Sc3ccc(Cl)cc32)CC1 (stereo not drawn) | > 10 µM (inactive) |
| Cc1[nH]cnc1C[C@H]1CCc2c(C)c3ccccc3n2C1=O | > 10 µM (inactive) |
| COc1ccc(/C=N/NC(=O)c2ccncc2)cc1OC | > 10 µM (inactive) |
| Nc1nc(F)nc2c1ncn2[C@@H]1O[C@H](CO)[C@@H](O)[C@@H]1O | > 10 µM (inactive) |
| O=C(CCl)c1ccc(Cl)cc1Cl | 6.17 µM (inactive) |
| CCCCCCCCCCCCCC[N+](C)(C)C | 6.68 µM (inactive) |
| COC(=O)c1ccccc1C(=O)OC | > 10 µM (inactive) |
| CC(C)=CCNc1ncnc2c1ncn2[C@@H]1O[C@H](CO)[C@@H](O)[C@H]1O | > 10 µM (inactive) |
| CCN(CC)C(=O)/C(C#N)=C/c1cc(O)c(O)c([N+](=O)[O-])c1 | > 10 µM (inactive) |
| COc1cc([C@@H]2c3cc4c(cc3[C@H](O)[C@H]3COC(=O)[C@H]23)OCO4)cc(OC)c1OC | > 10 µM (inactive) |
| CC(C)=CCOc1ccc(/C=C/C(=O)c2ccc(OCC=C(C)C)cc2OCC(=O)O)cc1 | > 10 µM (inactive) |
| COC(=O)C(Cl)C(=O)OC | > 10 µM (inactive) |
